Test results: publication PMC3973950, “Synthesis of 5-arylidine amino-1,3,4-thiadiazol-2-[(N-substituted benzyol)]sulphonamides endowed with potent antioxidants and anticancer activity induces growth inhibition in HEK293, BT474 and NCI-H226 cells” (Medicinal Chemistry Research, 2013)

How the values were obtained:
[1] = Total antioxidant activity (ABTS radical cation scavenging); format: biochemical; settings: Conc. ± SD; three independent experiments in duplicate; standard trolox; read-out: IC50 inhibitory concentration, ABTS^+ radical
Procedure: The ability of the test sample to scavenge 2,2′-azinobis-(3-ethylbenzothiazoline-6-sulphonic acid) (ABTS^·+) radical cation was compared with 6-hydroxy-2,5,7,8-tetramethylchroman-2-carboxylic acid (trolox) standard (Chang et al., [2007]; Erel, [2004]; Re et al., [1999]). The ABTS^·+ radical cation was pregenerated by mixing ABTS stock solution (7 mM) with potassium persulphate (2.45 mM) (final concentration) and incubating for 12–16 h in the dark at room temperature until the reaction was complete and the absorbance was stable. The absorbance of the ABTS^·+ solution was equilibrated to 0.70 (±0.02) by diluting with water at room temperature, then 1 mL of solution was mixed with 10 μL of the test sample (0.05–10 mg/mL), and the absorbance was measured at 734 nm after 6 min. All experiments were repeated three times. The percentage inhibition of absorbance was calculated and plotted as a function of the concentration of standard and sample to determine the trolox equivalent antioxidant concentration (TEAC). To calculate the TEAC, the gradient of the plot for the sample was divided by the gradient of the plot for trolox. The IC50 inhibitory concentration (nM/mL) values of tested compounds are depicted in Table 1. The ABTS^·+ radical scavenging activity of the samples was expressed as S%=[(Acontrol-Asample)/Acontrol]×100 where A control is the absorbance of the blank control (ABTS^·+ solution without test sample), and A sample is the absorbance of the test sample.

[2] = In vitro cytotoxicity by MTT assay, NCI-H226; format: cell-based; settings: human, NCI-H226 lung cancer cells, 0.015 μM, read-out: % Cytotoxicity (100 − % cell survival) of NCI-H226 cell line
Method in brief: (§1)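 Monolayers seeded at […] (about 10,000 per well) were treated after 24 h with the synthesized compounds and incubated three days. Viability was taken from MTT reduction, with formazan measured at 490 nm.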

[3] = system: NCI-H226 (lung cancer cell line); assay: In vitro cytotoxicity by MTT assay, NCI-H226; format: cell-based; settings: Homo sapiens, 72 h, read-out: % Cytotoxicity (100 − % cell survival) of NCI-H226 cell line; for cytotoxicity at 0.005 µM: NCI-H226, 0.005 μM; for cytotoxicity at 0.045 µM: NCI-H226, 0.045 μM; for cytotoxicity at 0.13 µM: NCI-H226, 0.13 μM; for cytotoxicity at 0.41 µM: NCI-H226, 0.41 μM; for cytotoxicity at 1.23 µM: NCI-H226, 1.23 μM; for cytotoxicity at 3.7 µM: NCI-H226, 3.7 μM; for cytotoxicity at 11.11 µM: NCI-H226, 11.11 μM; for cytotoxicity at 33.33 µM: NCI-H226, 33.33 μM; for cytotoxicity at 100 µM: NCI-H226, 100 μM
Method in brief: as §1

[4] = In vitro cytotoxicity by MTT assay, HEK 293; format: cell-based, human; settings: human, HEK 293 cells, read-out: % cytotoxicity (100 − % cell survival) of HEK 293 cell line
Method in brief: as §1

[5] = DPPH radical scavenging activity; format: biochemical; settings: Conc. ± SD; standard ascorbic acid; read-out: IC50 inhibitory concentration, DPPH radical
Procedure: Compounds of SC series were evaluated for their in vitro free radical scavenging activities by 2,2-diphenyl-1-picrylhydrazyl (DPPH) assay method (Blois, [1958]; Shishoo et al., [1999]; Chhajed et al., [2007]). To determine the free radical scavenging activity, a method based on the reduction of a methanolic solution of the coloured DPPH radical was used. To a set of test tubes containing methanol (3 mL), DPPH reagent (2 mg/mL) (50 μL) was added. The initial absorbance was measured. To these test tubes, methanolic solution of different test solutions (1 mg/mL) were added (10–50 μL). Ascorbic acid (0.5 mg/mL) was also added in the concentration of 10, 20, 30, 40, 50 and 100 μL. After 20 min, absorbance was recorded at 516 nm. The experiment was performed in triplicate. The percentage reduction in absorbance was calculated from the initial and final absorbance of each solution (Dhar and Taploo, [1982]).

[6] = Lipid peroxidation inhibitory activity (egg lecithin liposomes, TBA); format: biochemical; settings: Conc. ± SD; standard ascorbic acid; read-out: IC50 inhibitory concentration, Lipid peroxidation
Procedure: Egg lecithin (3 mg/mL phosphate buffer, pH 7.4) was sonicated in an ultrasonic sonicator for 10 min to ensure proper liposome formation. Test samples or standard, ascorbic acid (100 μL) of different concentrations (10, 20, 30, 40 50 and 100 μg/mL) was added to liposome mixture (1 mL); the control was without test sample. Lipid peroxidation was induced by adding ferric chloride (10 μL, 400 mM) and L-ascorbic acid (10 μL, 200 mM). After incubation for 1 h at 37 °C, the reaction was stopped by adding hydrochloric acid (2 mL, 0.25 N) containing trichloroacetic acid (150 mg/mL), thiobarbituric acid (3.75 mg/mL) and butylated hydroxy anisole (0.50 mg/mL). The reaction mixture was subsequently boiled for 15 min, cooled and centrifuged at 1,000 rpm for 15 min, and the absorbance of the supernatant was measured at 532 nm (Duh and Yen, [1997]). The % inhibition at different concentrations was calculated by the following formula %Inhibition=[1-(Vt/Vc)]×100 where V t = mean absorption of test compound, V c = mean absorption of control.
The IC50 (nM/mL) value was derived from the % inhibition at different concentrations.

Row | Structure (SMILES) | cytotoxicity at 72 h, 0.015 µM [2] | cytotoxicity at 0.005 µM [3] | cytotoxicity at 0.045 µM [3] | cytotoxicity at 0.13 µM [3] | cytotoxicity at 0.41 µM [3] | cytotoxicity at 1.23 µM [3] | cytotoxicity at 3.7 µM [3] | cytotoxicity at 11.11 µM [3] | cytotoxicity at 33.33 µM [3] | cytotoxicity at 100 µM [3] | cytotoxicity at 72 h, 0.005 µM [4] | cytotoxicity at 72 h, 0.015 µM [4] | cytotoxicity at 72 h, 0.045 µM [4] | cytotoxicity at 72 h, 0.13 µM [4] | cytotoxicity at 72 h, 0.41 µM [4] | cytotoxicity at 72 h, 1.23 µM [4] | cytotoxicity at 72 h, 3.7 µM [4] | cytotoxicity at 72 h, 11.11 µM [4] | cytotoxicity at 72 h, 33.33 µM [4] | cytotoxicity at 72 h, 100 µM [4] | also measured
1 | O=C(NS(=O)(=O)c1nnc(N=Cc2ccccc2)s1)c1ccccc1 [Compound 9a, N-{[5-(Benzylidenamino)-1,3,4-thiadiazol-2-yl]sulphonyl} benzamide] | 34.8% | 33.3% | 35.3% | 36.1% | 37% | 37.9% | 38.1% | 39.1% | 41.1% | 42.4% | 37.4% | 38.2% | 39.8% | 40.7% | 42.4% | 43.1% | 44.2% | 45.6% | 46.2% | 50.6% | IC50 [1]: 73.3 ± 7.05 µM; IC50 [5]: 134 ± 12.9 µM; melting point: 185 to 187 °C; IC50 [6]: 122 ± 18.6 µM
2 | O=C(NS(=O)(=O)c1nnc(N=Cc2ccc(Cl)cc2)s1)c1ccccc1 [Compound 9b, N-({5-[(4-Chlorobenzylidene)amino]-1,3,4-thiadiazol-2-yl}sulfonyl)benzamide] | 29.5% | 27.8% | 35.4% | 35.7% | 36.1% | 36.5% | 36.6% | 37% | 37.7% | 38% | 33.2% | 34.1% | 34.6% | 36.6% | 37.7% | 38% | 38.2% | 38.6% | 38.9% | 40.7% | IC50 [1]: 93.3 ± 10.7 µM; IC50 [5]: 88.2 ± 11.1 µM; melting point: 212 to 214 °C; IC50 [6]: 133 ± 11.5 µM
3 | COc1ccccc1C=Nc1nnc(S(=O)(=O)NC(=O)c2ccccc2)s1 [Compound 9c, N-({5-[(2-Methoxybenzylidene)amino]-1,3,4-thiadiazol-2-yl}sulfonyl)benzamide] | 33.2% | 31.5% | 34.1% | 35.1% | 35.9% | 36.1% | 37.7% | 38.2% | 40.3% | 43.5% | 36.8% | 38.2% | 40.3% | 42.1% | 42.9% | 43.1% | 44.3% | 45.9% | 47.4% | 52.3% | IC50 [1]: 196 ± 16.6 µM; IC50 [5]: 41.3 ± 4.23 µM; IC50 [6]: 102 ± 14.5 µM
4 | COc1cc(C=Nc2nnc(S(=O)(=O)NC(=O)c3ccccc3)s2)ccc1O [Compound 9g, N-({5-[(4-Hydroxy-3-methoxybenzylidene)amino]-1,3,4-thiadiazol-2-yl}sulfonyl)benzamide] | 33.2% | 32.7% | 34.1% | 35.1% | 36.3% | 37.5% | 38.6% | 39.2% | 39.8% | 42.5% | 25.4% | 27.6% | 28.5% | 30.3% | 31.1% | 32.1% | 32.8% | 33.5% | 34.1% | 38.6% | melting point: 252 to 254 °C
5 | CN(C)c1ccc(C=Nc2nnc(S(=O)(=O)NC(=O)c3ccccc3)s2)cc1 [Compound 9h, N-[(5-{[4-(Dimethylamino)benzylidene]amino}-1,3,4-thiadiazol-2-yl)sulfonyl]benzamide] | 35% | 32.9% | 35.4% | 36.3% | 36.4% | 37.2% | 37.5% | 37.9% | 39.2% | 40% | 32% | 32.9% | 34.5% | 34.8% | 35.1% | 35.7% | 35.7% | 36.2% | 36.9% | 37.6% | melting point: 236 to 238 °C
